The target of this test is natural firefly luciferase (Fluc) (Photinus pyralis, UniProt P08659). In words: Measurement of emission spectrum with natural firefly luciferase, ATP magnesium salt and luminescent substrate. The class given is biochemical. The conditions noted are these: 100 μM substrate solution, KPB pH 8.0, Fluc 1 mg/mL, 10 mM ATP magnesium salt, measured for 180 seconds. As for the experimental part:
The emission spectra were measured using the luminescent substrates represented by the structural formulas (1-1) to (1-10) synthesized as described above and the luminescent substrate represented by the structural formula (a) below. The luminescent substrate represented by the structural formula (a) was prepared according to “Synthesis of Luminescent Substrate C” in WO 2021/193069 A1 (PTL 4).
Specifically, 5 μL of 500 mM potassium phosphate buffer (KPB, pH 8.0), 5 μL of a 100 μM solution of each luminescent substrate, 5 µL of a 1 mg/mL solution of natural firefly luciferase (Fluc), and 10 μL of a 10 mM ATP magnesium salt solution were mixed, and the emission spectrum was measured for 180 seconds using a luminescence measurement device (AB-1850 manufactured by ATTO Corporation). However, the substrate concentration for the luminescent substrate represented by the structural formula (a) was set to 1 mM, and the substrate concentration for the luminescent substrate represented by the structural formula (1-6) was set to 10 mM. Note that FIGS. 1 to 3 illustrate emission spectra normalized so that the maximum emission intensity was 1.

Sequence of natural firefly luciferase (Fluc) (P08659 whole entry): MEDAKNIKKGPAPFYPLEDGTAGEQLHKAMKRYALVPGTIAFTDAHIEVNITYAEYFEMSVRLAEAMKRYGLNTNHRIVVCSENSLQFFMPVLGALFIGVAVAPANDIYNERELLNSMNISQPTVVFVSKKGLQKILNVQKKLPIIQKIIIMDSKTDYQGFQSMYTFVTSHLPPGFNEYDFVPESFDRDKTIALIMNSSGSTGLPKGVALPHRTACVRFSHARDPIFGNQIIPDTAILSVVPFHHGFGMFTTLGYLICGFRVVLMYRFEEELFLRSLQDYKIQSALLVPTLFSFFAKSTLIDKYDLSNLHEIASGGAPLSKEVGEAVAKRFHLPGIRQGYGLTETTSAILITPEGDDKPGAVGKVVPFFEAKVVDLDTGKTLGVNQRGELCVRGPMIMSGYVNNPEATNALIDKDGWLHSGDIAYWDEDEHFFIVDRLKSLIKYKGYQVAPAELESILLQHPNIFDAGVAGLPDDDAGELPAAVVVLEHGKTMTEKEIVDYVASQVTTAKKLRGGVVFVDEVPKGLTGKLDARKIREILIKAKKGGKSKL

Take `O=C(O)[C@H]1CSC(c2ccc(/C=C/c3ccc[nH]3)cc2)=N1` [Compound of structural formula (1-1)]: the “Maximum emission wavelength for each substrate (λmax)” value (from here on “Maximum emission wavelength”) is reported as 640 nm. For `O=C(O)[C@H]1CSC(c2ccc(/C=C/c3ccc[nH]3)cn2)=N1` [Compound of structural formula (1-2)], the “Maximum emission wavelength” value is 660 nm.

As to `Cn1cccc1/C=C/c1ccc(C2=N[C@@H](C(=O)O)CS2)cc1` [Compound of structural formula (1-3)], the “Maximum emission wavelength” value came to 640 nm. For `Cn1cccc1/C=C/c1ccc(C2=N[C@@H](C(=O)O)CS2)nc1` [Compound of structural formula (1-4)] the value was 660 nm; for `CN(C)c1ncc(/C=C/c2ccc(C3=N[C@@H](C(=O)O)CS3)nc2)s1` [Compound of structural formula (1-7)], 710 nm; for `CN(C)c1ncc(/C=C/c2ccc(C3=N[C@@H](C(=O)O)CS3)cc2)s1` [Compound of structural formula (1-8)], 680 nm. For `CN(C)c1cnc(/C=C/c2ccc(C3=N[C@@H](C(=O)O)CS3)nc2)s1` [Compound of structural formula (1-9)] the value was 760 nm. For the compound `CN(C)c1cnc(/C=C/c2ccc(C3=N[C@@H](C(=O)O)CS3)cn2)s1` [Compound of structural formula (1-10)], the “Maximum emission wavelength” value worked out at 730 nm.
